Measurements taken from patent US4496555A, “Compounds and compositions for inhibiting estrogen sulfotransferase transferase activity, process and novel intermediates therein” (Wayne State University, priority 1983, dated 1985).

Tests used:
[1] = test system: receptor binding and nuclear migration of physiological levels of 17β-estradiol; settings: Rozhin et al 1977; cited from earlier work
estrogen sulfurylation = settings: Rozhin et al, J. Biol Chem., 1977, 252, 7214; cited from earlier work
[2] = target: T1, Porcine Uterine Estrogen Sulfotansferase (Sus scrofa, UniProt A0A286ZW98); assay: Inhibition of porcine uterine estrogen sulfotransferase (estrogen sulfates formed); type: biochemical; settings: control 1.26 p mole
T1 sequence (A0A286ZW98 1-296): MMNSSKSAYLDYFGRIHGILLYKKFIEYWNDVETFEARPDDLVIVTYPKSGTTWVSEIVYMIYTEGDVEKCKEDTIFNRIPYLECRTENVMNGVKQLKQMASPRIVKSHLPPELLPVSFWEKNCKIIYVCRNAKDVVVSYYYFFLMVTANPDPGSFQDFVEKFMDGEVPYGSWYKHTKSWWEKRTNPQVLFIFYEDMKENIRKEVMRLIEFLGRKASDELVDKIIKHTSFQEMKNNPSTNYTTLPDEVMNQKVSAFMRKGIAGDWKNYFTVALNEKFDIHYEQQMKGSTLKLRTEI
Description: (§1) The estrogen sulfotransferase inhibiting activity of compounds within the scope of the invention are determined by inhibition of bovine adrenal or porcine uterine estrogen sulfotransferase. The desired concentration of estrogen sulfates is determined by comparisons after appropriate incubations with and without inhibitors and at various concentrations of inhibitors in the incubation. A detailed description of materials and methods for both bovine adrenal sulfotransferase inhibition and metabolism of estrogen in porcine uterus during implantation is described in U.S. Pat. No. 4,340,602 incorporated herein by reference above. Additionally, U.S. Pat. No. 4,340,602 describes materials and methods for determining estrogen sulfurylation in human endometrial curettings.

[3] = target: T2, Bovine Adrenal Estrogen Sulfotransferase (Bos taurus, UniProt P19217); assay: Purified bovine adrenal estrogen sulfotransferase inhibition; type: biochemical; settings: purified bovine adrenal enzyme; inhibitor concentration not given
T2 construct: from tissue; host or cells: bovine adrenal
T2 sequence (P19217 1-295): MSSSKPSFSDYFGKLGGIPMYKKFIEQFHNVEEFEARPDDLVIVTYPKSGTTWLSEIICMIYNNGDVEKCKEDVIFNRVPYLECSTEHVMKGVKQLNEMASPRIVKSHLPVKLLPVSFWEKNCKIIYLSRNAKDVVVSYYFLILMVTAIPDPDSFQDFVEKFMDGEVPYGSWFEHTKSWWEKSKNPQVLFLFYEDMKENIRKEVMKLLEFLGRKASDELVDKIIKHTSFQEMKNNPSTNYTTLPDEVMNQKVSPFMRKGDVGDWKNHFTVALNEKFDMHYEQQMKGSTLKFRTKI
Description: as §1
*Methods described in: Rozhin, J., et al. J. Biol. Chem. 252, 7214 (1977)

| Compound | interference with receptor binding and nuclear migration of 17β-estradiol [1] | estrogen sulfurylation (estrogen sulfurylation) | Estrogen Sulfates ([2]; 10-fold inhibitor) [p mole] | Estrogen Sulfates ([2]; 10^2-fold inhibitor) [p mole] | Estrogen Sulfates ([2]; 10^3 fold inhibitor) [p mole] | % Inhibition [3] [%] |
| --- | --- | --- | --- | --- | --- | --- |
| COc1ccc2c(c1[N+](=O)[O-])CC[C@@H]1[C@@H]2CC[C@]2(C)C(=O)CC[C@@H]12 [4-nitroestrone 3-0-methylether] | without interfering with the receptor binding and nuclear migration | blocks estrogen sulfurylation |  |  |  |  |
| C[C@]12CC[C@@H]3c4cccc(F)c4CC[C@H]3[C@@H]1CC[C@@H]2O [4-F-1,3,5(10)estratriene 17β-ol, 4-Fluoroestra-1,3,5-(10)-trien-17β-ol] |  |  | 1.07 | 1.08 | 0.67 | 81 |
